Experimental data: ChEMBL document CHEMBL1140390, “ERbeta ligands. Part 4: Synthesis and structure-activity relationships of a series of 2-phenylquinoline derivatives” (Bioorg Med Chem Lett, 2005)

How the values were obtained:
[1] = target: Estrogen receptor beta (Homo sapiens, UniProt Q92731)
Description: Binding affinity for human Estrogen receptor beta

[2] = target: T1, Estrogen receptor (Homo sapiens, UniProt P03372)
T1 sequence (P03372 whole entry): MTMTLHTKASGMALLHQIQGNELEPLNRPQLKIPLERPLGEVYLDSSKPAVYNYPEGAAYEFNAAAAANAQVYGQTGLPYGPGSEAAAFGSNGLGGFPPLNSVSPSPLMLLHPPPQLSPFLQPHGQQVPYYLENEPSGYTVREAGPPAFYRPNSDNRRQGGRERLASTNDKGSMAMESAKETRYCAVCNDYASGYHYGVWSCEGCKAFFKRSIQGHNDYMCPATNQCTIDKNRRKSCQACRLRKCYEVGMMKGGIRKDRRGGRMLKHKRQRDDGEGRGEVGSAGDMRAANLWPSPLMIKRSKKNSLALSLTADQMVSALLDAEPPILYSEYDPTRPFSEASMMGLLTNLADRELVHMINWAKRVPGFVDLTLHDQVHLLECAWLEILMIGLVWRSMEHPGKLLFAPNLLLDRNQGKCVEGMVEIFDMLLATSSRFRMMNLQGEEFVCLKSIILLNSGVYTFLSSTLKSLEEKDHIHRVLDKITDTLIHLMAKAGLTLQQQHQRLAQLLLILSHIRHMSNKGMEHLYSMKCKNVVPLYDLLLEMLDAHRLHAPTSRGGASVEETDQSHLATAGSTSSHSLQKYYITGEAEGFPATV
Description: Binding affinity for human Estrogen receptor alpha

Sequence of Estrogen receptor beta (Q92731 whole entry): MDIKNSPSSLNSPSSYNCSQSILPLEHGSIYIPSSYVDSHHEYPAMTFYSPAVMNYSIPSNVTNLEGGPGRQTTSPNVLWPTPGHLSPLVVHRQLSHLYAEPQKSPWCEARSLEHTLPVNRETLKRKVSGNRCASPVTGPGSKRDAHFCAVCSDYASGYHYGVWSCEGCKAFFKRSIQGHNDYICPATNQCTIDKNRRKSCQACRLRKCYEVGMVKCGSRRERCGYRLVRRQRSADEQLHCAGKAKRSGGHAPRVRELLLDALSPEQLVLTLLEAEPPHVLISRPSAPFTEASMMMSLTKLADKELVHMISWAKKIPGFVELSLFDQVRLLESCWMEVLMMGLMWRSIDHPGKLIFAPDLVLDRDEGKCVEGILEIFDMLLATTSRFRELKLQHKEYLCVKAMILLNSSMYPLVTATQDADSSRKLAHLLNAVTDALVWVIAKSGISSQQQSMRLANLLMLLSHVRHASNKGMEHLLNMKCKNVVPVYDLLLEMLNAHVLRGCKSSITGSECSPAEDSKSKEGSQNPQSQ

Row | IC50 [1] [nM] | IC50 [2] [nM] | SMILES
1 | 211 | 1810 | Oc1ccc2nc(-c3ccc(O)c(F)c3)cc(-c3ccccc3)c2c1
2 | 36 | 783 | Oc1ccc2nc(-c3cc(F)c(O)c(F)c3)cc(Br)c2c1
3 | 52 | 634 | CCc1cc(-c2ccc(O)cc2)nc2ccc(O)cc12
4 | 44 | 385 | C=Cc1cc(-c2ccc(O)c(F)c2)nc2ccc(O)cc12
5 | 75 | – | C#Cc1cc(-c2ccc(O)cc2)nc2ccc(O)cc12
6 | 27 | 1310 | C#Cc1cc(-c2ccc(O)c(F)c2)nc2ccc(O)cc12
7 | 221 | 3140 | CC(=O)c1cc(-c2ccc(O)cc2)nc2ccc(O)cc12
8 | 30 | 632 | Oc1ccc(-c2ccc3c(Cl)c(O)ccc3n2)cc1
9 | 88 | 1140 | Oc1ccc(-c2ccc3c(Br)c(O)ccc3n2)cc1
10 | 171 | 1780 | Oc1ccc(-c2ccc3cc(O)ccc3n2)cc1
11 | > 5000 | > 5000 | CC(O)c1cc(-c2ccc(O)c(F)c2)nc2ccc(O)cc12 (stereo not drawn)
12 | 79 | 1750 | CCc1cc(-c2ccc(O)c(F)c2)nc2ccc(O)cc12
